Assay results taken from US12516087B2, “Methods and compositions comprising therapeutic gamma peptide nucleic acid-based molecules” (UNIVERSITY OF IOWA RESEARCH FOUNDATION, priority 2022, dated 2026).
No end group written: not given here.

System: endothelial cells (HUVECs)
Test: Binding of TAMRA-labelled γPNA to cells (fluorescence intensity)
Type: cell-based, human
Details: 30 minutes incubation, fluorescence intensity normalized to protein
Protocol: FIGS. 11A and 11B. […] The cells were incubated with TAMRA-e-γP-122-I or TAMRA-γP-122-I for 30 minutes, washed three times, lysed, and the fluorescence intensity was measured and normalized to protein. RFI: Rhodamine (5-TAMRA) fluorescence intensity (561/600).
The inventors generated an endothelial cell targeting version of the disclosed γ-PNA inhibitors of miR-122 by fusing the peptide VHPK (SEQ ID NO: 4) to the γ-PNAs of the instant disclosure (“VHPK-γ-PNA fusion”). VHPK binds to vascular cell adhesion molecule 1 (VCAM1) which is highly expressed on the surface of endothelial cells.

## TAMRA-e-γP-122-I: endothelial cell targeting γ-PNA miR-122 inhibitor fused to peptide VHPK (SEQ ID NO: 4), TAMRA-labelled (VHPKQHRQQSKQC; also: fused to γ-PNA miR-122 inhibitor, TAMRA-labelled, place not given here)
  binding to endothelial cells (HUVECs) versus untagged γ-PNA: Increased binding
  binding to endothelial cells versus HEK-293 cells: increased binding to endothelial cells as compared to human embryonic kidney (HEK-293) cells
Listed as VHPK-γ-PNA fusion
  binding to endothelial cells (HUVECs) versus untagged γ-PNA: increased binding
